Non-standard residues stand in square brackets, D forms with d. Residues, ends and D or L forms follow the SMILES beside them. dPhe(4-Cl) = N[C@H](Cc1ccc(Cl)cc1)C(=O)O
Experiments:
[1] = system: Ishikawa; assay: Inhibition of colony formation by GnRH analogues (dose-survival, Example 48); assay type: cell-based, human; details: 50 µM
Experimental: (§1) The examination gives accurate information about the cell-damaging effect of the substance tested as a function of varying doses. The treatment was carried out once; the colonies formed from the surviving cells were counted after 8 - 12 days. […] A part of the arrested cells again entered the cycle, another part of them might be destroyed (apoptosis). […] In the case of a dose-response investigation, colonies containing less than 15 cells were not counted. 300 cells were put into each Petri dishes of 3.5 cm in diameter. The treatment was once carried out 24 hours after setting, then the colonies formed were counted after 8 - 12 days. The cells were treated once after 24 hours with 1-50 µM of various GnRH analogues of Examples above or with 1 - 50 µM of GnRH-III, respectively. The percentages of inhibition obtained on MCF-7, MDA-MB-231, PC3 and Ishikawa cells, respectively, together with the dose of the active agent used are shown in Table VIII.

[2] = system: MCF-7; assay: as above; assay type: cell-based, human; details: treated once
Experimental: as §1

[3] = system: MDA-MB-231; assay: as above; assay type: cell-based, human
Experimental: as §1

[4] = system: PC3; assay: as above; assay type: cell-based, human; details: for % Inhibition of the colony formation: 50 µM; for inhibition of colony formation: within the dose range used (1-50 µM)
Experimental: as §1

[5] = system: human tumour cell lines; assay: Inhibition of colony formation (Example 48), comparison with the control D-Trp^6-hGnRH; assay type: cell-based; details: data of Table VIII
Experimental: as §1
In these studies the D-Trp^6-hGnRH analogue (Sigma Co.) commonly used in the tumour therapy was employed as control.

[6] = system: human tumour cell lines; assay type: cell-based; details: 30 µM
Experimental: (§2) After being treated with trypsin, 300.000 each of MCF-7, MDA-MB-231, PC3 or Ishikawa cells, respectively, were passed into Petri dishes of 10 cm in diameter. Starting from the day following the setting, the cells were treated with 1-50 µM of the GnRH analogue in the exponential growth phase. During the experiment lasting for 5 days, the cells were treated in every two days with the peptide hormone dissolved in the nutrient medium, then the cell count was determined on the sixth day.

[7] = system: Ishikawa human endometrium carcinoma cell line; assay: Inhibition of colony formation (dose-survival relation, Example 18); assay type: cell-based
Experimental: (§3) In the case of cytostatics the cell-damaging effect is not cell-specific. […] One part of the arrested cells again go into the cycle, the other part may perish (apoptosis). […] The investigations were carried out on MCF-7 and MDA-MB-231 human mammary carcinoma cell lines, PC3 human prostate 15 carcinoma cell line and Ishikawa human endometrium carcinoma cell line. Three hundred cells were set into Petri dishes of 3.5 cm in diameter each. The treatment was carried out once, 24 hours following the explantation, then the colonies formed were counted after 9 to 12 days.

[8] = system: MCF-7 human mammary carcinoma cell line; assay: as above; assay type: cell-based; details: for % Inhibition of colony formation: treated once
Experimental: as §3

[9] = system: MDA-MB-231 human mammary carcinoma cell line; assay: as above; assay type: cell-based
Experimental: as §3

[10] = system: PC3 human prostate carcinoma cell line; assay: as above; assay type: cell-based
Experimental: as §3

[11] = system: MCF-7; details: MCF-7; 30 µM active substance; conjugate, treated once; cell count on 7th day; listed as 8. P-GFLG-1004
Experimental: (§4) The procedure of treatment was as follows. After trypsinization the cells, 400,000 cells of MCF-7, MDA-MB-231 human mammary carcinoma, PC3 human prostate carcinoma or Ishikawa human endometrium tumour each were passed into Petri dishes of 10 cm in diameter. Starting from the day following transfer, the cells were treated with the substances to be tested in solution prepared with the nutrient medium during the exponential growth phase. […]

[12] = system: MDA-MB-231; details: MDA-MB-231; 30 µM active substance; conjugate, treated once; listed as 8. P-GFLG-1004
Experimental: as §4

[13] = system: Ishikawa
Experimental: The procedure of treatment was as follows. After trypsinization the cells, 400,000 cells of MCF-7, MDA-MB-231 human mammary carcinoma, PC3 human prostate carcinoma or Ishikawa human endometrium tumour each were passed into Petri dishes of 10 cm in diameter. Starting from the day following transfer, the cells were treated with the substances to be tested in solution prepared with the nutrient medium during the exponential growth phase. The cultures were treated with 1 to 50 µM (calculated for the total volume of the culture) or MI-1544 GnRH antagonist, MI-1892 chicken GnRH antagonist or SJ-1004 GnRH […] on the 7th day.

[14] = system: PC3; assay: In vitro inhibition of cell proliferation (Example 19); assay type: cell-based, human
Experimental: The procedure of treatment was as follows. After trypsinization the cells, 400,000 cells of MCF-7, MDA-MB-231 human mammary carcinoma, PC3 human prostate carcinoma or Ishikawa human endometrium tumour each were passed into Petri dishes of 10 cm in diameter. Starting from the day following transfer, the cells were treated with the substances to be tested in solution prepared with the nutrient medium during the exponential growth phase. The cultures were treated with 1 to 50 µM (calculated for the total volume of the culture) or MI-1544 GnRH antagonist, MI-1892 chicken GnRH antagonist or SJ-1004 GnRH antagonist analogues as well as synthetic lamprey GnRH-III hormone every two days and the cell count was determined on the 7th day.

[15] = system: MXT mouse mammary tumour; assay: In vivo antitumour effect on mice bearing MXT mouse mammary tumour; design: species or system CBA/Ca mice
Experimental: The MXT mouse mammary carcinoma contains ER and PgR proteins; furthermore, it contains also GnRH receptors; therefore, this in vivo tumour model is suitable for studying both the direct and indirect effects. The treatment of mice bearing MXT mammary tumour was commenced on the day following transplantation. […] Table VI The animals were daily treated in s.c. route starting from the day following transplantation of MXT mouse mammary tumour. […] MI-1544: 75 µg/day/animal; MI-1892: 75 µg/day/animal.

[16] = system: MCF-7; assay type: cell-based, human; details: MCF-7 ER-positive; after 6 days' treatment; dose not stated
Experimental: as §2

[17] = system: MDA-MB-231; assay type: cell-based, human; details: MDA-MB-231 ER-negative; after 6 days' treatment; dose not stated
Experimental: as §2

[18] = 30 µM active substance, conjugate, treated once
[19] = 30 µM, peptide alone, two treatments on days 2 and 4
[20] = MXT mouse mammary tumour, Treatment weeks: 13, 1x75 µg daily s.c.
[21] = MXT mouse mammary tumour, Treatment weeks: 20, 1x75 µg daily s.c.

In the case of `CC(=O)NCCCC[C@H](NC(=O)[C@H](Cc1c[nH]c2ccccc12)NC(=O)[C@H](Cc1c[nH]cn1)NC(=O)[C@@H]1CCC(=O)N1)C(=O)N[C@@H](Cc1c[nH]cn1)C(=O)N[C@@H](CC(=O)O)C(=O)N[C@@H](Cc1c[nH]c2ccccc12)C(=O)N[C@@H](CCCCN)C(=O)N1CCC[C@H]1C(=O)NCC(N)=O` [7. [Lys(ε-AC)]^4 GnRH-III, [Lys(î-Ac)]^4 -GnRH-III], the “% Inhibition of the colony formation” value [1] is reported as 14%, the “% Inhibition of the colony formation” value ([2]; 10 µM) is reported as 40% and the “% Inhibition of the colony formation” value ([2]; 50 µM) is reported as 52%. For the same molecule, the “% Inhibition of the colony formation” value ([3]; 10 µM) was 31%, the “% Inhibition of the colony formation” value ([3]; 50 µM) was 42% and the “% Inhibition of the colony formation” value ([3]; 50 µM, listed as Example 32, 50 µM) was 35-42%. For the same molecule, the “% Inhibition of the colony formation” value [4] was 0%, the “inhibition of colony formation” value [4] was “did not influence” and the “inhibitory effect compared with the control D-Trp^6-hGnRH” value [5] was “exceeded the inhibitory effect of control”. The proliferation-inhibiting effect [6] was 27-31%.

For “D-Phe^2,D-Trp^3,{D-Lys[n-poly(N-vinylpyrrolidone-co-maleic acid)-Gly-Phe-Leu-Gly]}^6,-GnRH [P-GFLG-1004]”, the “% Inhibition of colony formation” value ([7]; 10 µM) was 3%, the “% Inhibition of colony formation” value ([7]; 50 µM) was 46% and the “% Inhibition of colony formation” value ([8]; 10 µM (active substance)) was 75%. The “% Inhibition of colony formation” value ([8]; 50 µM (active substance), listed as 8. P-GFLG-1004, 50 µM) was 95%, the “% Inhibition of colony formation” value ([9]; 10 µM) was 62% and the “% Inhibition of colony formation” value ([9]; 50 µM, listed as 8. P-GFLG-1004, 50 µM) was 92%. The “% Inhibition of colony formation” value ([10]; 30 µM) was 100%, the “% Inhibition of colony formation” value ([10]; 50 µM) was 100% and the “% Inhibition of the colony formation” value [4] was 31%. The “% Inhibition of cell division (proliferation)” value (shortened to “% Inhibition of cell division”) [11] was 63%, the “% Inhibition of cell division” value [12] was 68% and the “% Inhibition of cell division” value [13, 18] was 20%. The “% Inhibition of cell division” value [14, 18] was 35%.

For `CC(=O)N[C@H](Cc1c[nH]c2ccccc12)C(=O)N[C@H](Cc1ccc(Cl)cc1)C(=O)N[C@H](Cc1c[nH]c2ccccc12)C(=O)N[C@@H](CO)C(=O)N[C@@H](Cc1ccc(O)cc1)C(=O)N[C@H](CCCCN)C(=O)N[C@@H](CC(C)C)C(=O)N[C@@H](CCCNC(=N)N)C(=O)N1CCC[C@H]1C(=O)N[C@H](C)C(N)=O` [MI-1544, Ac-D-Trp^1,3,D-Cpa^2,D-Lys^6,D-Ala^10-hGnRH, reference compound] (Ac-[dW][dPhe(4-Cl)][dW]SY[dK]LRP[dA]-NH2), the “% Inhibition of colony formation” value ([7]; 50 µM) was 5%, the “% Inhibition of colony formation” value ([8]; 50 µM (active substance)) was 45% and the “% Inhibition of colony formation” value ([9]; 50 µM) was 20%. The “% Inhibition of colony formation” value ([10]; 50 µM) was 20%, the inhibition of proliferation [13, 19] was 8% and the inhibition of proliferation [14, 19] was 24%. For the same molecule, the Inhibition % [15, 20] was 46%, the “Tumour volume as control (%)” value [15, 20] was 54% and the Inhibition % [15, 21] was 46%. The “Tumour volume as control (%)” value [15, 21] was 54%, the “Tumour volume (cm^3)” value ([15]; day 9, 75 µg/day/animal s.c.) was 0.44 cm^3 and the “Tumour volume as control (%)” value ([15]; day 9, 75 µg/day/animal s.c.) was 63%. The “Tumour volume (cm^3)” value ([15]; day 11, 75 µg/day/animal s.c.) was 1.03 cm^3, the “Tumour volume as control (%)” value ([15]; day 11, 75 µg/day/animal s.c.) was 57% and the “Tumour volume (cm^3)” value ([15]; day 13, 75 µg/day/animal s.c.) was 1.74 cm^3. For the same molecule, the “Tumour volume as control (%)” value ([15]; day 13, 75 µg/day/animal s.c.) was 54%, the “Tumour volume (cm^3)” value ([15]; day 17, 75 µg/day/animal s.c.) was 2.63 cm^3 and the “Tumour volume as control (%)” value ([15]; day 17, 75 µg/day/animal s.c.) was 51%. The “Tumour volume (cm^3)” value ([15]; day 18, 75 µg/day/animal s.c.) was 3.94 cm^3, the “Tumour volume as control (%)” value ([15]; day 18, 75 µg/day/animal s.c.) was 53% and the “Tumour volume (cm^3)” value ([15]; day 20, 75 µg/day/animal s.c.) was 5.02 cm^3. The “Tumour volume as control (%)” value ([15]; day 20, 75 µg/day/animal s.c.) was 54%, the “Tumour volume (cm^3)” value ([15]; day 24, 75 µg/day/animal s.c.) was 6.08 cm^3 and the “Tumour volume as control (%)” value ([15]; day 24, 75 µg/day/animal s.c.) was 48%. The “Tumour volume (cm^3)” value ([15]; day 26, 75 µg/day/animal s.c.) was 8.42 cm^3 and the “Tumour volume as control (%)” value ([15]; day 26, 75 µg/day/animal s.c.) was 60%.

For D-Phe^6-GnRH(1-9)-ethylamide [Ovurelin], the “inhibition (change in the cell count)” value [16] was 5-15% and the “inhibition of cell proliferation” value [17] was 25-30%.

For `NCCCC[C@H](NC(=O)[C@H](Cc1c[nH]c2ccccc12)NC(=O)[C@H](Cc1c[nH]cn1)NC(=O)[C@@H]1CCC(=O)N1)C(=O)N[C@@H](Cc1c[nH]cn1)C(=O)N[C@@H](CC(=O)O)C(=O)N[C@@H](Cc1c[nH]c2ccccc12)C(=O)N[C@@H](CCCCN)C(=O)N1CCC[C@H]1C(=O)NCC(N)=O` [6. Lys^4-GnRH-III, Lys^4-GnRH-III], the “inhibition of colony formation” value ([7]; concentration not given) was 21%, the “inhibition of colony formation” value ([8]; concentration not given) was 40% and the “inhibition of colony formation” value ([9]; concentration not given) was 35%. The “inhibition of colony formation” value ([10]; concentration not given) was “did not show any inhibition”, the “% Inhibition of the colony formation” value [1] was 21% and the “% Inhibition of the colony formation” value ([2]; 10 µM) was 15%. For the same molecule, the “% Inhibition of the colony formation” value ([2]; 50 µM) was 40%, the “% Inhibition of the colony formation” value ([3]; 10 µM) was 18% and the “% Inhibition of the colony formation” value ([3]; 50 µM) was 35%. The “% Inhibition of the colony formation” value ([3]; 50 µM, listed as Example 31, 50 µM) was 35-42%, the “% Inhibition of the colony formation” value [4] was 0% and the “inhibition of colony formation” value [4] was “did not influence”. For the same molecule, the “inhibitory effect compared with the control D-Trp^6-hGnRH” value [5] was “exceeded the inhibitory effect of control” and the proliferation-inhibiting effect [6] was 27-31%.

In the case of “[D-Ser(tBu)]^6,desGly^10-hGnRH(1-9)EA [Buserelin]”, the “inhibition (change in the cell count)” value [16] is reported as 5-15% and the “inhibition of cell proliferation” value [17] is reported as 25-30%.

Source: patent EP0728012B1, “NOVEL GnRH ANALOGUES WITH ANTITUMOUR EFFECTS AND PHARMACEUTICAL COMPOSITIONS THEREOF” (Lovas, Sandor, priority 1994, dated 1996)
